Measurements as given in patent US10196360B2, “Crystal forms of bedaquiline fumarate and preparation methods therefor” (Zhejiang Hisun Pharmaceutical Co., Ltd., priority 2015, dated 2019).

Assays:
[1] = Particle size test (Mastersizer 2000); assay type: physicochemical; conditions: non-micronized, dispersant n-hexane, fumarate
Experimental: The test conditions for the particle size involved in the present invention are: Mastersizer model: Mastersizer 2000; operation method: 20 mg of bedaquiline fumarate sample is taken, about 5.0 ml dispersant (n-hexane) is added, the sample is subjected to ultrasonication for 1.0 min, is allowed to stabilize for 0.5-1.0 min and then is tested.
Test Procedure: the Hydro2000SM injector was connected and the Small Volume Sample Dispersion Unit tachometer was turned on, then a suitable amount of ethanol was added to the sample cell to clean the detection channel of the instrument. A suitable amount of n-hexane (dispersant) was added to the dispersion cup, a suitable amount of n-hexane (dispersant) was inlet into the instrument to exhaust gas, the stirring rate was set to 2950 rpm, optical correction and background measurement were carried out.
The suspension was added to the sample cell until the opacity was between 15% to 20%, the suspension was allowed to stabilize for 0.5-1.0 min, the measurement time was 4 sec, the test results was saved automatically by the system.

[2] = Solubility of the crystal forms in different solvents at 50° C.; assay type: physicochemical
[3] = N,N-dimethylformamide, fumarate

## COc1nc2ccc(Br)cc2cc1[C@@H](c1ccccc1)[C@@](O)(CCN(C)C)c1cccc2ccccc12.O=C(O)/C=C/C(=O)O [Crystal form III, (1R,2S)-1-(6-bromo-2-methoxyquinolin-3-yl)-4-dimethylamino-1-phenyl-2-(1-naphthyl)-2-butanol fumarate]
[1]
  D (0.1): 10.034 um
  D (0.5): 33.721 um
  D (0.9): 68.295 um
[2]; Methanol, fumarate
  solubility: 6000 mg/mL
[2]; [3]
  solubility: 3000 mg/mL
[2]; Tetrahydrofuran, fumarate
  solubility: 3000 mg/mL
[2]; Water
  solubility: insoluble

## COc1nc2ccc(Br)cc2cc1[C@@H](c1ccccc1)[C@@](O)(CCN(C)C)c1cccc2ccccc12.O=C(O)/C=C/C(=O)O [Crystal form I, (1R,2S)-1-(6-bromo-2-methoxyquinolin-3-yl)-4-dimethylamino-1-phenyl-2-(1-naphthyl)-2-butanol fumarate]
[1]
  D (0.1): 4.991 um
  D (0.5): 16.303 um
  D (0.9): 37.967 um
[2]; Methanol, fumarate
  solubility: 2000 mg/mL
[2]; [3]
  solubility: 1000 mg/mL
[2]; Tetrahydrofuran, fumarate
  solubility: 1000 mg/mL
[2]; Water
  solubility: insoluble

## COc1nc2ccc(Br)cc2cc1[C@@H](c1ccccc1)[C@@](O)(CCN(C)C)c1cccc2ccccc12.O=C(O)/C=C/C(=O)O [Crystal form II, (1R,2S)-1-(6-bromo-2-methoxyquinolin-3-yl)-4-dimethylamino-1-phenyl-2-(1-naphthyl)-2-butanol fumarate]
[1]
  D (0.1): 3.146 um
  D (0.5): 12.646 um
  D (0.9): 37.019 um
[2]; Methanol, fumarate
  solubility: 6000 mg/mL
[2]; [3]
  solubility: 2000 mg/mL
[2]; Tetrahydrofuran, fumarate
  solubility: 5000 mg/mL
[2]; Water
  solubility: insoluble
